The values below come from US6900233B2, “Substituted 3-phenyl-5-alkoxy-3H-(1,3,4)-oxadiazol-2-ones, pharmaceutical composition and method for treating obesity thereof” (Aventis Pharma Deutschland GmbH, priority 2002, dated 2005).

One data set addresses T1, pancreatic lipase (PL) (Sus scrofa, UniProt P00591).
T1 construct: Enriched preparation from porcine pancreas; purchased Sigma L-0382; host or cells: porcine pancreas (tissue preparation)
T1 sequence (P00591 1-450): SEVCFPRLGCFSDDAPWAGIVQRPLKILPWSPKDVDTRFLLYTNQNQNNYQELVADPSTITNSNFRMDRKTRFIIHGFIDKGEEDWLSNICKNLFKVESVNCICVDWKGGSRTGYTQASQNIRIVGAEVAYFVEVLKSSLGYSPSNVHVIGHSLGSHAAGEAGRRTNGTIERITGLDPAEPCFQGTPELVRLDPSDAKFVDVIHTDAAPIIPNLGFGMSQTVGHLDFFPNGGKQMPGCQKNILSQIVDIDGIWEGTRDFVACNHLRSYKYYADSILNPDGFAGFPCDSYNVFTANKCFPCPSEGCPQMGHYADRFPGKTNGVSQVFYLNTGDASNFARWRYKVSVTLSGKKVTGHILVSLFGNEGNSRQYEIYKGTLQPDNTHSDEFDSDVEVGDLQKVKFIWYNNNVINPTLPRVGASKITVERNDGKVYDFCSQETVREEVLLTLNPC
Nature of the data set: Pancreatic lipase enzyme assay (release of radiolabeled oleate from tripalmitin/glycerol tri[3H]oleate substrate). It counts as biochemical. Conditions: enriched preparation from porcine pancreas, 30° C., 30 min, up to 8 concentrations. The protocol: The effect of the compounds according to the invention of formula 1 was tested using the following enzyme assay system: [lacuna]
The activity of the compounds was assayed as follows:
1. Preparation of the Substrate:
80 μL of tripalmitin (85 mM in chloroform) are mixed with 5 μL of glycerol tri[9,10(n)-^3H]oleate (5 mCi/mL in toluene) in a 12 mL polypropylene vessel. Evaporation in a rotary evaporator (50° C.) and addition of 4 mL of 200 mM Tris/HCl (pH 7.6), 0.8% TX-100 are followed by ultrasound treatment of the mixture (Branson B-12 sonifier, output level 4, 3×2 min with 1 min intervals on ice) until a homogeneous milky suspension is produced.
Lipase buffer: 80 mM Tris/HCl (pH 7.6), 600 mM NaCl, 8 mM CaCl2, 8 mM benzamidine, 2 mM Pefabloc (Roche Biochemicals) (add the inhibitors only on the day of the assay)
Pancreatic lipase: Enriched preparation from porcine pancreas (Sigma order No. L-0382) dissolved in lipase buffer (100 000 units/500 μL)
5 μL of test substance (in 100% DMSO) or DMSO (control) are mixed with 10 μL of substrate and 5 μL of lipase (in this sequence) and incubated at 30° C. (Eppendorf Thermomixer, 350 min^−1) for 30 min. After addition of 325 μL of methanol/chloroform/n-heptane (10/9/7) and 105 μl of 0.1 M K2CO3, 0.1 M H3BO3 (pH 10.5 adjusted with 1 M KOH) and vigorous mixing, the phases are separated by centrifugation (8000 rpm, Eppendorf centrifuge, 4° C.). 140 μL portions of the aqueous supernatant (contains the liberated radiolabeled oleate; 70% recovery) are transferred into 20 mL scintillation vials and mixed with 6 mL of scintillation cocktail (Beckman ReadySafe). After vigorously mixing and incubating at room temperature for 2 h, the radioactivity is measured in a liquid scintillation counter (Beckman, L8008, tritium channel with quench curve, measurement time 20 min).
Substances are routinely tested in each concentration in three independent incubation mixtures each with duplicate determination after phase separation (SD<0.02). Background values (reaction under the same conditions but without lipase) are subtracted from all values (corresponds predominantly to the content of glycerol trioleate or free oleate in the substrate preparation in the aqueous phase, <5% of the radioactivity employed). The inhibition of the pancreatic lipase enzymatic activity by a test substance is determined by comparison with an uninhibited control reaction (presence of lipase=0% inhibition; absence of lipase 100% inhibition in each case after background correction). The IC50 is calculated from an inhibition plot with up to 8 concentrations of the test substance. The software package GRAPHIT (Elsevier-BIOSOFT) is used for curve fitting and IC50 determination.

pIC50: −log10 of the molar value.

In general, melting point refers to the temperature of the solid-liquid transition. In turn, `CC(C)CCC[C@@H](C)[C@H]1CC[C@H]2[C@@H]3CCC4C[C@@H](Oc5nn(-c6ccc(OC(F)(F)F)cc6)c(=O)o5)CC[C@]4(C)[C@H]3CC[C@]12C` (some centres unmarked) showed a melting point of 127 °C. What is called pIC50 is the IC50 on a negative log10 scale, so that one unit is a factor of ten. On to `CCCCCCCCCCCCOc1nn(-c2ccc(OC(F)(F)F)cc2)c(=O)o1` [Example 1, 5-Dodecyloxy-3-(4-trifluoromethoxy-phenyl)-3H-(1,3,4)-oxadiazol-2-one], for which the pIC50 against pancreatic lipase (PL) is 7.52. Compound `CCCCCCCCCCCCCCCCOc1nn(-c2ccc(OC(F)(F)F)cc2)c(=O)o1` [Example 2, 5-Hexadecyloxy-3-(4-trifluoromethoxy-phenyl)-3H-(1,3,4)-oxadiazol-2-one] registered a melting point of 56 °C. The compound further showed a negative-log IC50 (pIC50) at pancreatic lipase (PL) of 6.60. `CCCCCCCCOc1nn(-c2ccc(OC(F)(F)F)cc2)c(=O)o1` [Example 3, 5-Octyloxy-3-(4-trifluoromethoxy-phenyl)-3H-(1,3,4)-oxadiazol-2-one] showed a pIC50 against pancreatic lipase (PL) of 6.46. Take `CCCCCCCCCCCCCCCCOc1nn(-c2cccc(OC(F)(F)F)c2)c(=O)o1` [Example 4, 5-Hexadecyloxy-3-(3-trifluoromethoxy-phenyl)-3H-(1,3,4)-oxadiazol-2-one]: the melting point was found to be 53 °C. On pancreatic lipase (PL), the pIC50 is 5.60.

The compound `CCCCCCCCCCCCCCCCOc1nn(-c2ccc(Oc3ccc(Cl)cc3)cc2)c(=O)o1` [Example 5, 5-Hexadecyloxy-3-(4-(4-chlorophenoxy)-phenyl)-3H-(1,3,4)-oxadiazol-2-one] registered a melting point of 52 °C. In addition, the negative logarithm of the IC50 (pIC50) against pancreatic lipase (PL) is 5.70.

In turn, `CCCCCCCCOc1nn(-c2ccccc2)c(=O)o1` [Example 6, 5-Octyloxy-3-phenyl-3H-(1,3,4)-oxadiazol-2-one] displayed a melting point of 38 °C. Moreover, the pIC50 at pancreatic lipase (PL) was 6.05.

As to `CCCCCCCCCCCCCCCCOc1nn(-c2cccc(F)c2)c(=O)o1` [Example 8, 5-Hexadecyloxy-3-(3-fluoro-phenyl)-3H-(1,3,4)-oxadiazol-2-one], the melting point was 58 °C.

Regarding `CCCCCCCCCCCCCCCCOc1nn(-c2cccc(OCc3ccccc3)c2)c(=O)o1` [Example 9, 5-Hexadecyloxy-3-(3-benzyloxy-phenyl)-3H-(1,3,4)-oxadiazol-2-one], the melting point was 65 °C. Turning to `CCCCCCCCCCCCCCCCOc1nn(-c2ccccc2)c(=O)o1` [Example 10, 5-Hexadecyloxy-3-phenyl-3H-(1,3,4)-oxadiazol-2-one], the melting point amounted to 63 °C.

As to `CCCCCCCCCCCCCCCCOc1nn(-c2ccc([N+](=O)[O-])cc2)c(=O)o1` [Example 11, 5-Hexadecyloxy-3-(4-nitro-phenyl)-3H-(1,3,4)-oxadiazol-2-one], the melting point stood at 72 °C. Consider `CCCCCCCCCCCCCCCCOc1nn(-c2ccc(OC)cc2)c(=O)o1` [Example 12, 5-Hexadecyloxy-3-(4-methoxy-phenyl)-3H-(1,3,4)-oxadiazol-2-one], for which the melting point amounted to 66 °C. The same measure, in the same setting: in the case of `CCCCCCCCCCCCCCCCOc1nn(-c2ccc(OCc3ccccc3)cc2)c(=O)o1` [Example 13, 5-Hexadecyloxy-3-(4-benzyloxy-phenyl)-3H-(1,3,4)-oxadiazol-2-one] it was 73 °C. Turning to `CCCCCCCCCCCOc1nn(-c2ccc(OC(F)(F)F)cc2)c(=O)o1` [Example 15, 5-Undecyloxy-3-(4-trifluoromethoxy-phenyl)-3H-(1,3,4)-oxadiazol-2-one], the melting point came out at 38 °C. The same compound showed a pIC50 on pancreatic lipase (PL) of 6.22. On to `CCCCCCCCCCCCCCOc1nn(-c2ccc(OC(F)(F)F)cc2)c(=O)o1` [Example 16, 5-Tetradecyloxy-3-(4-trifluoromethoxy-phenyl)-3H-(1,3,4)-oxadiazol-2-one], for which the melting point turned out to be 46 °C. On the same count and under the same terms, for `CCCCCCCCCCCCCOc1nn(-c2ccc(OC(F)(F)F)cc2)c(=O)o1` [Example 17, 5-Tridecyloxy-3-(4-trifluoromethoxy-phenyl)-3H-(1,3,4)-oxadiazol-2-one] the value was 50 °C.

Take `O=c1oc(OCCc2ccc(F)cc2)nn1-c1ccc(OC(F)(F)F)cc1` [Example 21, 5-(2-(4-Fluorophenyl)-ethoxy)-3-(4-trifluoromethoxy-phenyl)-3H-(1,3,4)-oxadiazol-2-one]: the melting point turned out to be 60 °C. For the compound `CCCCCCCCCCCCCCCCCCCCCCOCCOc1nn(-c2ccc(OC(F)(F)F)cc2)c(=O)o1` [Example 25, 5-(Docosyloxy-ethoxy)-3-(4-trifluoromethoxy-phenyl)-3H-(1,3,4)-oxadiazol-2-one], the melting point was 71 °C. Take `CCCCCCCCCCCCOc1nn(-c2ccc(OC(F)(F)F)cc2)c(=O)o1` [Example 29, 5-(Dodecyloxy)-3-(4-trifluoromethoxy-phenyl)-3H-(1,3,4)-oxadiazol-2-one]: the melting point was 41 °C. `CCCCCCCCCCCCOc1nn(-c2ccc(Cl)c(Cl)c2)c(=O)o1` [Example 30, 5-(Dodecyloxy)-3-(3,4-dichloro-phenyl)-3H-(1,3,4)-oxadiazol-2-one] gave a melting point of 74 °C. Same read-out and setting: for `CCCCCCCCCCCCOc1nn(-c2cc(Cl)cc(Cl)c2)c(=O)o1` [Example 31, 5-(Dodecyloxy)-3-(3,5-dichloro-phenyl)-3H-(1,3,4)-oxadiazol-2-one] the value was 48 °C; for `CCCCCCCCCCCCOc1nn(-c2cccc(OC)c2)c(=O)o1` [Example 32, 5-(Dodecyloxy)-3-(3-methoxy-phenyl)-3H-(1,3,4)-oxadiazol-2-one], 51 °C.

In turn, `CCCCCCCCCCCCOc1nn(-c2ccc(OC)cc2)c(=O)o1` [Example 33, 5-(Dodecyloxy)-3-(4-methoxy-phenyl)-3H-(1,3,4)-oxadiazol-2-one] showed a melting point of 57 °C. Turning to `CCCCCCCCCCCCOc1nn(-c2cccc([N+](=O)[O-])c2)c(=O)o1` [Example 34, 5-(Dodecyloxy)-3-(3-nitro-phenyl)-3H-(1,3,4)-oxadiazol-2-one], the melting point amounted to 64 °C. Consider `CCCCCCCCCCCCOc1nn(-c2cccc(C(F)(F)F)c2)c(=O)o1` [Example 35, 5-(Dodecyloxy)-3-(3-trifluoromethyl-phenyl)-3H-(1,3,4)-oxadiazol-2-one], for which the melting point worked out at 43 °C. For the compound `CCCCCCCCCCCCOc1nn(-c2ccc(OCc3ccccc3)cc2)c(=O)o1` [Example 37, 5-(Dodecyloxy)-3-(4-benzyloxy-phenyl)-3H-(1,3,4)-oxadiazol-2-one], the melting point turned out to be 65 °C. For `CCCCCCCCCCCCOc1nn(-c2cccc(F)c2)c(=O)o1` [Example 38, 5-(Dodecyloxy)-3-(3-fluoro-phenyl)-3H-(1,3,4)-oxadiazol-2-one], the melting point was 44 °C. `CCCCCCCCCCCCOc1nn(-c2ccc([N+](=O)[O-])c(OCc3ccc(F)cc3)c2)c(=O)o1` [Example 39, 5-(Dodecyloxy)-3-(3-(4-fluorobenzyloxy)-4-nitro-phenyl)-3H-(1,3,4)-oxadiazol-2-one] registered a melting point of 71 °C. Turning to `CCCCCCCCCCCCOc1nn(-c2ccc([N+](=O)[O-])cc2C)c(=O)o1` [Example 40, 5-(Dodecyloxy)-3-(2-methyl-4-nitro-phenyl)-3H-(1,3,4)-oxadiazol-2-one], the melting point was determined as 63 °C. In turn, `CCCCCCCCCCCCOc1nn(-c2ccc([N+](=O)[O-])c(C)c2)c(=O)o1` [Example 41, 5-(Dodecyloxy)-3-(3-methyl-4-nitro-phenyl)-3H-(1,3,4)-oxadiazol-2-one] showed a melting point of 62 °C.
